# Assays:
# KI-67 gene = test: Real-time PCR, KI-67 gene expression; assay type: cell-based, human; conditions: relative to untreated control (1), normalized to GAPDH
# Description: The expression level of the following six genes (Ki-67, Survivin, Interleukin-1 beta (IL-1B), Interleukin-6 (IL-6), Cyclooxygenase-2 (COX-2) and protein kinase B (AKT1)) was determined in MCF7 and HEP2 treated with the IC50 of compound 5c. The untreated cells were used as a negative control for comparison purposes. […] Ki-67 is a popular proliferation marker for human tumor cells. […] Survivin is an inhibitor of apoptotic protein (IAP) family member, which is essential for cell division. The lowering of the expression of survivin inhibited tumor development, triggered apoptosis, and made tumor cells more susceptible to radiation and chemotherapy (Albadari and Li [2023]). […] IL-1B is a pleiotropic mediator of inflammation, which is produced in response to a variety of stressors (Aarreberg et al. [2019]). […] IL-6 is a pro-inflammatory cytokine that plays a significant role in the proliferation and differentiation of human cells. It promotes the production of numerous proteins involved in acute inflammation (Uciechowski and Dempke [2020]). […]
# The expression level of the following six genes (Ki-67, survivin, AKT1, IL-6, COX2, and IL-1B) was examined using real-time polymerase chain reaction (qPCR) (Mohamed et al. [2023a]). […] The cycle threshold (Ct) was determined automatically. […]
# [1] = test system: human liver carcinoma (HEPG2) cells; test: SRB cytotoxic assay, HEPG2; assay type: cell-based; conditions: single dose 100 µg/mL, 48 h, read-out: %Inhibition at100 µg/mL HEPG2
# Description: (§1) All the prepared compounds were screened at a concentration of 100 µg/mL against six different human cell lines: human laryngeal carcinoma (HEP2), human colorectal carcinoma (HCT116), human breast carcinoma (MCF7), human Lung carcinoma (A549), human liver carcinoma (HEPG2), and normal African Green monkey kidney cell line (VERO). Doxorubicin was used as a positive control for comparison purposes.
# (§2) The human laryngeal carcinoma (HEP2), colorectal carcinoma (HCT116), breast carcinoma (MCF7), Lung carcinoma (A549), liver carcinoma (HEPG2), and normal African Green monkey kidney cell line (VERO) were purchased from American Tissue Culture Collection (Rockville, MD, USA). The cells were treated for 48 h with a single dose (100 µg/mL) of all the tested chalcones. […] In brief, the cells were seeded in a 96-well microtiter plate at a concentration of 5×10^3 cells/well in 100 µL fresh RPMI-1640 medium and left to attach to the plates for 24 h. Then, cells were incubated with 100 μL of different concentrations (50, 25, 12.5, 6.25, and 0.0 µg/mL) of 5c in triplicate at 37 °C for 48 h. After that, the cells were fixed with 10 µL cold 100% Trichloroacetic acid (TCA) for 1h at 4 °C. The wells were then washed 1 time with distilled water using (automatic Tecan washer, Germany) and stained for 30 min at room temperature with 50 µL 0.4% SRB dissolved in 1% acetic acid. The plates were air-dried and the dye was solubilized with 100 µl/well of 1M tris base (pH 10.5) for 5 min. The optical density (O.D.) of each well was measured spectrophotometrically at 570 nm with an ELISA microplate reader (Sunrise Tecan reader, Germany) with automatic shaking for 30 seconds before reading. The mean background absorbance was subtracted automatically and mean values for each drug concentration were calculated. The percentage of cell survival was calculated as follows: Survival fraction= O.D. (treated cells)/ O.D. (control cells) (Bhat et al. [2023]).
# [2] = test system: human breast carcinoma (MCF7) cells; test: SRB cytotoxic assay, MCF7; assay type: cell-based; conditions: MCF7, 48 h
# Description: as §1, §2
smiles,measurement,setting,value
"COc1ccc(NC(=O)COc2ccc(C=CC(=O)c3cccs3)cc2)cc1 [Compound 5c, N-(4-Methoxyphenyl)-2-(4-(3-oxo-3-(thiophen-2-yl)prop-1-en-1-yl)phenoxy)acetamide]",KI67 expression folding,KI-67 gene; HEP2 cells treated with IC50 of 5c,0.648±0.015 fold
same,KI67 expression folding,KI-67 gene; MCF7 cells treated with IC50 of 5c,0.352±0.0172 fold
same,inhibition at 100 µg/mL,[1],67 ± 1.6%
same,IC50,[2],9.5 µg/mL
same,inhibition at 100 µg/mL,"[2]; single dose 100 µg/mL, read-out: %Inhibition at100 µg/mL MCF7",> 75%
